From publication PMC10838953
Where “and” joins values, the source holds several entries; their conditions need not be identical. Equal entries are not always repeated.

Columns and labels:
[1] = system: AKT (S129) in 786-O cells
AKT (S129) = settings: 786-O cells; 48 h
[2] = system: tumor slices of clear cell renal carcinoma (786-O-luc xenograft); settings: 10 μM CX-4945, 5 μM AB668
caspase-3 in 786-O cells = settings: 72 h, compounds at 20 μM
HeLa cells = settings: cited from earlier work
HEK293 cell line = settings: nontumor HEK293 cell line; cited from earlier work

O=C(O)c1ccc2c(c1)nc(Nc1cccc(Cl)c1)c1ccncc12 [CX-4945, silmitasertib]
CK2 inhibition 8 h after inhibitor removal (CK2 in 786-O cells): CK2 activity was restored to its initial level | NES: Cell recruitment (pro-inflammatory response) (786-O cells): 1.563 | NES: Constitutive Signaling by NOTCH1 HD+PEST Domain Mutants (786-O cells): -1.497 | NES: Constitutive Signaling by NOTCH1 PEST Domain Mutants (786-O cells): -1.497 | NES: Export of Viral Ribonucleoproteins from Nucleus (786-O cells): 1.432 | NES: G alpha (12/13) signalling events (786-O cells): -1.412 | NES: HCMV Late Events (786-O cells): 1.511 | NES: Infection with Mycobacterium tuberculosis (786-O cells): 1.475 | NES: Interferon alpha/beta signaling (786-O cells): -1.554 | NES: Purinergic signaling in leishmaniasis infection (786-O cells): 1.563 | NES: Response of Mtb to phagocytosis (786-O cells): 1.605 | NES: Rev-mediated nuclear export of HIV RNA (786-O cells): 1.427 | NES: Signaling by NOTCH1 HD+PEST Domain Mutants in Cancer (786-O cells): -1.497 | NES: Signaling by NOTCH1 PEST Domain Mutants in Cancer (786-O cells): -1.497 | NES: Signaling by NOTCH1 in Cancer (786-O cells): -1.497 | NES: Uptake and actions of bacterial toxins (786-O cells): 1.428 | enrichmentScore: Cell recruitment (pro-inflammatory response) (786-O cells): 0.6607 | enrichmentScore: Constitutive Signaling by NOTCH1 HD+PEST Domain Mutants (786-O cells): -0.4974 | enrichmentScore: Constitutive Signaling by NOTCH1 PEST Domain Mutants (786-O cells): -0.4974 | enrichmentScore: Export of Viral Ribonucleoproteins from Nucleus (786-O cells): 0.45 | enrichmentScore: G alpha (12/13) signalling events (786-O cells): -0.5156 | enrichmentScore: HCMV Late Events (786-O cells): 0.4357 | enrichmentScore: Infection with Mycobacterium tuberculosis (786-O cells): 0.5692 | enrichmentScore: Purinergic signaling in leishmaniasis infection (786-O cells): 0.6607 | enrichmentScore: Response of Mtb to phagocytosis (786-O cells): 0.6338 | enrichmentScore: Rev-mediated nuclear export of HIV RNA (786-O cells): 0.4457 | enrichmentScore: Signaling by NOTCH1 HD+PEST Domain Mutants in Cancer (786-O cells): -0.4974 | enrichmentScore: Signaling by NOTCH1 PEST Domain Mutants in Cancer (786-O cells): -0.4974 | enrichmentScore: Signaling by NOTCH1 in Cancer (786-O cells): -0.4974 | enrichmentScore: Uptake and actions of bacterial toxins (786-O cells): 0.5866 | NES: SARS-CoV-1 activates/modulates innate immune responses (786-O cells; R-HSA-9692916, CX4945 vs DMSO): 1.374 | enrichmentScore: SARS-CoV-1 activates/modulates innate immune responses (786-O cells; R-HSA-9692916, CX4945 vs DMSO): 0.4726 | NES: SARS-CoV-1 modulates host translation machinery (786-O cells; R-HSA-9735869, CX4945 vs DMSO): -1.391 | enrichmentScore: SARS-CoV-1 modulates host translation machinery (786-O cells; R-HSA-9735869, CX4945 vs DMSO): -0.4335 | pAKTS129 / AKT band quantification [1]: 0.3 and 0.4 | phosphorylation of S129AKT (AKT (S129)): decreased, in a dose-dependent manner | cell viability of tumor slices [2]: had no effect | caspase-3 activation (caspase-3 in 786-O cells): induced caspase-3 activation

O=C(CCC(=O)NCCc1ccc(Cl)c(Cl)c1)NCCCCn1cnc2c(Br)c(Br)c(Br)c(Br)c21 [KN2]
cytotoxicity (HeLa cells): 6 µM | cytotoxicity (HEK293 cell line): 16 µM

CCC(=O)Nc1cc(Nc2cc(NC3CC3)n3ncc(C#N)c3n2)ccc1C [SGC-CK2-1]
CK2 inhibition 8 h after inhibitor removal (CK2 in 786-O cells): persisted | pAKTS129 / AKT band quantification [1]: 0.4 | phosphorylation of S129AKT (AKT (S129)): decreased, in a dose-dependent manner | caspase-3 activation (caspase-3 in 786-O cells): did not activate caspase-3

CN[C@@H]1C[C@H]2O[C@@](C)([C@@H]1OC)n1c3ccccc3c3c4c(c5c6ccccc6n2c5c31)C(=O)NC4 [staurosporine]
caspase-3 activation (caspase-3 in 786-O cells): induced caspase-3 activation
